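48-hour exposure; five concentrations; linearly interpolated endpoints. TGI: total growth inhibition.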
How the values were obtained:
Assay in all cases: inhibition of tumour cell growth, NCI panel, 48 h
ACHN renal = test system: ACHN renal
U251 CNS = test system: U251 CNS
MALME-3M melanoma = test system: MALME-3M melanoma
K-562 leukemia = test system: K-562 leukemia
SW-620 colon = test system: SW-620 colon
UO-31 renal = test system: UO-31 renal
SK-MEL-5 melanoma = test system: SK-MEL-5 melanoma
UACC-257 melanoma = test system: UACC-257 melanoma
HCT-116 colon = test system: HCT-116 colon
RXF 393 renal = test system: RXF 393 renal
SF-268 CNS = test system: SF-268 CNS
NCI-H522 lung = test system: NCI-H522 lung
SR leukemia = test system: SR leukemia
OVCAR-8 ovarian = test system: OVCAR-8 ovarian
M14 melanoma = test system: M14 melanoma
MCF7 breast = test system: MCF7 breast
NCI/ADR-RES ovarian = test system: NCI/ADR-RES ovarian
OVCAR-5 ovarian = test system: OVCAR-5 ovarian

Structure (SMILES): O=C1c2ccccc2N2OC3C4CCC(C4)C3C12c1ccccc1 (configuration not stated)
- TGI (ACHN renal): > 100 µM
- TGI (U251 CNS): > 100 µM
- TGI (MALME-3M melanoma): > 100 µM
- TGI (K-562 leukemia): > 100 µM
- TGI (SW-620 colon): > 100 µM
- TGI (UO-31 renal): > 100 µM
- TGI (SK-MEL-5 melanoma): > 100 µM
- TGI (UACC-257 melanoma): > 100 µM
- TGI (HCT-116 colon): > 100 µM
- TGI (RXF 393 renal): 77.8 µM
- TGI (SF-268 CNS): > 100 µM
- TGI (NCI-H522 lung): > 100 µM
- TGI (SR leukemia): > 100 µM
- TGI (OVCAR-8 ovarian): > 100 µM
- TGI (M14 melanoma): > 100 µM

Structure (SMILES): O=C1CC(CC(O)C(O)CO)CC(=O)N1 (configuration not stated)
- TGI (ACHN renal): > 100 µM
- TGI (MCF7 breast): > 100 µM
- TGI (U251 CNS): > 100 µM
- TGI (MALME-3M melanoma): > 100 µM
- TGI (K-562 leukemia): > 100 µM
- TGI (SW-620 colon): > 100 µM
- TGI (UO-31 renal): > 100 µM
- TGI (SK-MEL-5 melanoma): > 100 µM
- TGI (UACC-257 melanoma): > 100 µM
- TGI (HCT-116 colon): > 100 µM
- TGI (SF-268 CNS): > 100 µM
- TGI (NCI-H522 lung): > 100 µM
- TGI (NCI/ADR-RES ovarian): > 100 µM
- TGI (OVCAR-8 ovarian): > 100 µM
- TGI (M14 melanoma): > 100 µM

Structure (SMILES): O=C(CN1CCOCC1)NC1=Nc2ncccc2C(=O)NN1
- TGI (ACHN renal): > 10 µM
- TGI (MCF7 breast): > 10 µM
- TGI (U251 CNS): > 10 µM
- TGI (MALME-3M melanoma): > 10 µM
- TGI (K-562 leukemia): > 10 µM
- TGI (SW-620 colon): > 10 µM
- TGI (UO-31 renal): > 10 µM
- TGI (SK-MEL-5 melanoma): > 10 µM
- TGI (UACC-257 melanoma): > 10 µM
- TGI (HCT-116 colon): > 10 µM
- TGI (RXF 393 renal): > 10 µM
- TGI (SF-268 CNS): > 10 µM
- TGI (OVCAR-5 ovarian): > 10 µM
- TGI (SR leukemia): > 10 µM
- TGI (OVCAR-8 ovarian): > 10 µM
- TGI (M14 melanoma): > 10 µM

Structure (SMILES): CN1C(=O)c2cccc3c([N+](=O)[O-])ccc(c23)C1=O
- TGI (ACHN renal): 21.7 µM
- TGI (U251 CNS): 13.8 µM
- TGI (MALME-3M melanoma): 31.1 µM
- TGI (K-562 leukemia): 25 µM
- TGI (SW-620 colon): 6.12 µM
- TGI (UO-31 renal): 26.7 µM
- TGI (SK-MEL-5 melanoma): 32.6 µM
- TGI (UACC-257 melanoma): 21.6 µM
- TGI (HCT-116 colon): 18.9 µM
- TGI (RXF 393 renal): 8.61 µM
- TGI (SF-268 CNS): 23.5 µM
- TGI (NCI-H522 lung): 2.91 µM
- TGI (OVCAR-5 ovarian): 13.4 µM
- TGI (SR leukemia): 14 µM
- TGI (OVCAR-8 ovarian): 18.9 µM
- TGI (M14 melanoma): 23.1 µM

Structure (SMILES): CNC(=S)N/N=C(\C)c1ccc(OC)cc1O
- TGI (ACHN renal): > 100 µM
- TGI (U251 CNS): > 100 µM
- TGI (MALME-3M melanoma): > 100 µM
- TGI (K-562 leukemia): > 100 µM
- TGI (SW-620 colon): > 100 µM
- TGI (UO-31 renal): > 100 µM
- TGI (SK-MEL-5 melanoma): > 69.5 µM
- TGI (UACC-257 melanoma): > 100 µM
- TGI (HCT-116 colon): > 100 µM
- TGI (RXF 393 renal): > 100 µM
- TGI (SF-268 CNS): > 100 µM
- TGI (NCI-H522 lung): > 100 µM
- TGI (OVCAR-5 ovarian): > 100 µM
- TGI (SR leukemia): > 100 µM
- TGI (NCI/ADR-RES ovarian): > 100 µM
- TGI (OVCAR-8 ovarian): > 100 µM
- TGI (M14 melanoma): > 100 µM

Structure (SMILES): COc1ccccc1OCc1nnc(SCC(=O)O)n1-c1ccccc1
- TGI (ACHN renal): > 100 µM
- TGI (U251 CNS): > 100 µM
- TGI (MALME-3M melanoma): > 100 µM
- TGI (UO-31 renal): > 100 µM
- TGI (SK-MEL-5 melanoma): > 100 µM
- TGI (UACC-257 melanoma): > 100 µM
- TGI (HCT-116 colon): > 100 µM
- TGI (SF-268 CNS): > 100 µM
- TGI (NCI-H522 lung): > 100 µM
- TGI (OVCAR-5 ovarian): > 100 µM
- TGI (SR leukemia): > 100 µM
- TGI (OVCAR-8 ovarian): > 100 µM
- TGI (M14 melanoma): > 100 µM

Structure (SMILES): CN(C)CCCNC(=O)c1cc(NC(=O)CCCn2c3ccccc3c3ccccc32)cn1C
- TGI (ACHN renal): > 100 µM
- TGI (MCF7 breast): > 100 µM
- TGI (U251 CNS): > 100 µM
- TGI (MALME-3M melanoma): 61.7 µM
- TGI (K-562 leukemia): > 100 µM
- TGI (SW-620 colon): > 100 µM
- TGI (UO-31 renal): > 100 µM
- TGI (SK-MEL-5 melanoma): > 100 µM
- TGI (HCT-116 colon): > 100 µM
- TGI (RXF 393 renal): > 100 µM
- TGI (SF-268 CNS): > 100 µM
- TGI (OVCAR-5 ovarian): > 100 µM
- TGI (NCI/ADR-RES ovarian): > 100 µM
- TGI (OVCAR-8 ovarian): > 100 µM
- TGI (M14 melanoma): > 100 µM
